One data set concerns the target hERG (Homo sapiens (Human), UniProt Q12809). Description: human ether-a-go-go-related gene (hERG) assay. Conditions: for hERG toxicity: result in words. The protocol: In the development of medicines, drug toxicity as well as therapeutic effects plays an important role. One of the most commonly used criteria for determining drug toxicity is human ether-a-go-go-related gene (hERG) toxicity. Most pharmaceutical companies determine a drug showing a hERG IC50 value of less than 0.1 μM to be highly toxic, and thus stop the development of the drug. Whereas, the companies determine a drug showing a hERG IC50 value of 10 μM or more to be non-toxic.
For investigation of the degree of drug toxicity by TAM receptor inhibiting compounds of the present invention, human ether-a-go-go-related gene (hERG) assay was performed on Compounds 29, 60, 73, 75, 84, 89, and 132 on Table 4.

Another data set concerns the target Mer (Homo sapiens (Human), UniProt Q12866). Description: Mer kinase inhibition assay (Cisbio method, Eu-labeled antibody to phosphorylated peptide). Conditions: read-out: IC50 (μM) Mer; 1 hour reaction with substrate peptide and ATP.
The target of a further data set is Axl (Homo sapiens (Human), UniProt P30530). Description: Axl kinase inhibition assay (Cisbio method, Eu-labeled antibody to phosphorylated peptide). As to conditions: read-out: IC50 (μM) Axl; 1 hour reaction with substrate peptide and ATP.
For the next data set, the target named is Tyro 3 (Homo sapiens (Human), UniProt Q06418). Description: Tyro 3 kinase inhibition assay (Cisbio method, Eu-labeled antibody to phosphorylated peptide). As to conditions: read-out: IC50 (μM) Tyro 3; 1 hour reaction with substrate peptide and ATP.

Where only a bound is given, the exact number is not on record here.

Mer, sequence (Q12866 21-999): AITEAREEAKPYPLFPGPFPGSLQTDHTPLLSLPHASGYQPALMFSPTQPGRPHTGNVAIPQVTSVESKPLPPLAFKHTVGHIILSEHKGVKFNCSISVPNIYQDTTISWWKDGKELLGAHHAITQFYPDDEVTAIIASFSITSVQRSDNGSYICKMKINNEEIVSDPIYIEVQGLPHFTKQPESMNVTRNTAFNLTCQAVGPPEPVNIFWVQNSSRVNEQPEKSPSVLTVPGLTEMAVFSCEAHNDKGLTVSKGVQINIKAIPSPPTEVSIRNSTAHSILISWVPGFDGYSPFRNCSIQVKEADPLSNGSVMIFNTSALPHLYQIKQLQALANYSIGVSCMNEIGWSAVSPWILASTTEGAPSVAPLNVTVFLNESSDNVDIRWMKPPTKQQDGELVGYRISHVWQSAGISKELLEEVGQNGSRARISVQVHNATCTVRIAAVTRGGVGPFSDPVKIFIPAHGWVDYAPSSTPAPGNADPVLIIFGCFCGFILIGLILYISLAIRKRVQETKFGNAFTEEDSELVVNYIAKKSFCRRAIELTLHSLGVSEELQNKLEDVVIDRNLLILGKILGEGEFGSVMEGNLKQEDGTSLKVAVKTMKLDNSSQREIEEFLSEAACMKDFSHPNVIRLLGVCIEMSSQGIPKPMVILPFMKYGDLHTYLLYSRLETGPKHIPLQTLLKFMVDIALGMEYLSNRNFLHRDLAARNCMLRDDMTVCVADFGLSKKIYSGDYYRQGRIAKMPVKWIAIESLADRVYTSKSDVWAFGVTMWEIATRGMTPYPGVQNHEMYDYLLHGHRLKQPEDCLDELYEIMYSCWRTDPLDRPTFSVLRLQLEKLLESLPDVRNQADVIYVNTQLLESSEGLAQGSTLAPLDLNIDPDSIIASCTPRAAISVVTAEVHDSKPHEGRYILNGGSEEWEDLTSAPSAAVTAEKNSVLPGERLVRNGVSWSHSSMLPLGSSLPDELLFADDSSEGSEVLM
hERG, sequence (Q12809 whole entry): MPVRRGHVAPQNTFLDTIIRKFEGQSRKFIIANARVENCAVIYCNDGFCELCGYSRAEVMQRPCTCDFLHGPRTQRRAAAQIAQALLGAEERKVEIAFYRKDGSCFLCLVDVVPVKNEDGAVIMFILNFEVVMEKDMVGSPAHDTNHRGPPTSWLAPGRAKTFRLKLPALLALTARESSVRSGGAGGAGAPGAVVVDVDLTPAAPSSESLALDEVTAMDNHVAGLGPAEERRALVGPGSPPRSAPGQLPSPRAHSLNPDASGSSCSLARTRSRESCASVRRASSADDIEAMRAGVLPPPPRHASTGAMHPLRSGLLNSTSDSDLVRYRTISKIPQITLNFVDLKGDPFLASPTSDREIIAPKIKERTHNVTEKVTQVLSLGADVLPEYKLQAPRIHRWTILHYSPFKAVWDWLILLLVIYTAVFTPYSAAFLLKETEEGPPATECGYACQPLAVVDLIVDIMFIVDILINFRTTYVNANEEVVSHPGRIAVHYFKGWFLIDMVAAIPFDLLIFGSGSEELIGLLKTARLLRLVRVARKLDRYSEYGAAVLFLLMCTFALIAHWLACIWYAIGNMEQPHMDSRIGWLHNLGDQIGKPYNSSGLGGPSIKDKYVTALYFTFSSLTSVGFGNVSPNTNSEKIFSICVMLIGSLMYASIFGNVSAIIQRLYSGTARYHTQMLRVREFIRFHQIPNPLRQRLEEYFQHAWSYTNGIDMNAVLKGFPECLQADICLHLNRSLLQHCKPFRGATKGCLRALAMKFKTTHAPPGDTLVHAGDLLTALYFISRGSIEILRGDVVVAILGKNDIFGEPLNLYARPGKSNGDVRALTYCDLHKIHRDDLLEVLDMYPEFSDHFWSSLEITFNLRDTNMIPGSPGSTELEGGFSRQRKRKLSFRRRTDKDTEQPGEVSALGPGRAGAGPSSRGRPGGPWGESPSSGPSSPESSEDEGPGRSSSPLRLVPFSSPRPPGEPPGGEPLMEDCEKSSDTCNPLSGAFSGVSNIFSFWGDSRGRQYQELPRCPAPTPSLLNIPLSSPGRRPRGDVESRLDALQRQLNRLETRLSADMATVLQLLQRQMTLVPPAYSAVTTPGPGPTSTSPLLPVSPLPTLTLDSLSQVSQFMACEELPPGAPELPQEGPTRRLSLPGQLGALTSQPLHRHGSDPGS
Tyro 3, sequence (Q06418 41-890): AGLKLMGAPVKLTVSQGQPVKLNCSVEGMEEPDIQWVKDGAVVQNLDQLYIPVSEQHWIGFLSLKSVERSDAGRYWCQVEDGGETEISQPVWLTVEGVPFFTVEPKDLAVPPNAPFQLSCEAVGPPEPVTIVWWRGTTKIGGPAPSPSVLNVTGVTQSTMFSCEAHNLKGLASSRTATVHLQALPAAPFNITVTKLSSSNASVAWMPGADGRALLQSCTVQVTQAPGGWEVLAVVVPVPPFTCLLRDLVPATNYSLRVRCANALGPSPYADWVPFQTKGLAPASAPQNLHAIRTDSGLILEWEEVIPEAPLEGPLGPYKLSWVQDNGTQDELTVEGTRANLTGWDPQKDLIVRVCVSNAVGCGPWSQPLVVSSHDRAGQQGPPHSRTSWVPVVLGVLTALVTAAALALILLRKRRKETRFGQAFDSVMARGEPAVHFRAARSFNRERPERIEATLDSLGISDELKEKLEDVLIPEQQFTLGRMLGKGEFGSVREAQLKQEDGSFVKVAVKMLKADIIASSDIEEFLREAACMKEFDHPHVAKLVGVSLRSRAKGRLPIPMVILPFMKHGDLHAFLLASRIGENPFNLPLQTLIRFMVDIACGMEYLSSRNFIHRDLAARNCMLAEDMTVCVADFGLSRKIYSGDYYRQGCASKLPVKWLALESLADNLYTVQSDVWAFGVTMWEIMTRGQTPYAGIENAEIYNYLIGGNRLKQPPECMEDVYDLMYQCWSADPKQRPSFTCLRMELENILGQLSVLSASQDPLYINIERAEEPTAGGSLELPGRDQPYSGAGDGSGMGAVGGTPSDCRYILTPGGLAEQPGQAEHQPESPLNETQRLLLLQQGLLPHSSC
Axl, sequence (P30530 26-894): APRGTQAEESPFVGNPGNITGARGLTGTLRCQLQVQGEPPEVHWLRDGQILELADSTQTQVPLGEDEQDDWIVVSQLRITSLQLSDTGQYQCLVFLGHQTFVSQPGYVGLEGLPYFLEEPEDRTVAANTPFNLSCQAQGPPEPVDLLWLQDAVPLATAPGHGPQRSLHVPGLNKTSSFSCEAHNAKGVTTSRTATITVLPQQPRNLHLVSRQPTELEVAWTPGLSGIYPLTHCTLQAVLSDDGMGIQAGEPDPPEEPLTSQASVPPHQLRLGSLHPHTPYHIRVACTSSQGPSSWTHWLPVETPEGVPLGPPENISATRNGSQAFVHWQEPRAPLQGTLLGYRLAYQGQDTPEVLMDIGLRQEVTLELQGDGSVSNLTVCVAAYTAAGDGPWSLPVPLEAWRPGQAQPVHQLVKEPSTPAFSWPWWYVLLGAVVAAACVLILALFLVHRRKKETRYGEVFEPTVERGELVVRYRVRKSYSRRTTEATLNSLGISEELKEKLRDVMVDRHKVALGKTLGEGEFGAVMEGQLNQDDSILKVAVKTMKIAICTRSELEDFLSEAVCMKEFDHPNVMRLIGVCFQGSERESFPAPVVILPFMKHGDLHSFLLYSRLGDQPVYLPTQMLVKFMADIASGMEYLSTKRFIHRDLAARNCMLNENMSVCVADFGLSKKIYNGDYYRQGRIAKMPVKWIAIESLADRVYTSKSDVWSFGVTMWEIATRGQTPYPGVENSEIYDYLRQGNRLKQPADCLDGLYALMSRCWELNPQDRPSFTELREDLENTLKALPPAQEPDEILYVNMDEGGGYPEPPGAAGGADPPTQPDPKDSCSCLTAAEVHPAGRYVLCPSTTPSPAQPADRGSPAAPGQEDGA
Experimental for Axl: (§1) For evaluation of inhibitory activities of the compounds according to the present invention on Tyro 3, Axl, and Mer, the following test was carried out.
(§2) The specific test method followed the method provided by Cisbio. The compounds of the examples were prepared at various concentrations, followed by addition of Tyro 3, Axl, or Mer and substrate peptides, and then ATP was added to initiate a reaction. After 1 hour, the reaction was stopped by addition of a solution containing EDTA. Thereafter, the amount of phosphorylated peptides was measured. Here, the phosphorylated peptides were treated with an europium (Eu)-labeled antibody recognizing phosphorylated peptides, and then after 1 hour, excited by irradiation of the light of a wavelength of 320 or 340 nm using an Envision Reader.
Experimental for Mer: as §1, §2
Experimental for Tyro 3: as §1, §2

Turning to `Cn1cc(-c2cnc(Nc3cc(Cl)cc(Cl)c3)nc2NC2CCNCC2)cn1` [Compound 29, N2-(3,5-dichlorophenyl)-5-(1-methyl-1H-pyrazol-4-yl)-N4-(piperidin-4-yl)pyrimidine-2,4-diamine], the half-maximal inhibitory concentration (IC50) (in general, the concentration that gives 50% inhibition) on hERG was ≤ 1 µM.

For `OCCn1cc(-c2cnc(Nc3cc(Cl)cc(Cl)c3)nc2NC2CCNCC2)cn1` [Compound 75, 2-(4-(2-(3,5-dichlorophenylamino)-4-(piperidin-4-ylamino)pyrimidin-5-yl)-1H-pyrazol-1-yl)ethanol], the IC50 on hERG was ≥ 50 µM.

For the compound `Clc1cc(Cl)cc(Nc2ncc(-c3cnn(C4CCNCC4)c3)c(Nc3ccc4c(c3)CNCC4)n2)c1` [Compound 132, N2-(3,5-dichlorophenyl)-5-(1-(piperidin-4-yl)-1H-pyrazol-4-yl)-N4-(1,2,3,4-tetrahydroisoquinolin-7-yl)pyrimidine-2,4-diamine], the hERG toxicity result at hERG is “no hERG toxicity”.

Turning to `Cn1cc(-c2cnc(Nc3cc(Cl)cc(Cl)c3)nc2Nc2ccc3c(c2)CNCC3)cn1` [Compound 84, N2-(3,5-dichlorophenyl)-5-(1-methyl-1H-pyrazol-4-yl)-N4-(1,2,3,4-tetrahydroisoquinolin-7-yl)pyrimidine-2,4-diamine], at hERG, the hERG toxicity entry is “no hERG toxicity”.

For the compound `CCOc1cn(-c2ccc(F)cc2C)nc1C(=O)Nc1ccc(Oc2ccnc3cc(OC)c(OC)cc23)c(F)c1` [LDC1267, reference compound], on Mer, the IC50 is 0.068 µM.

For `Cc1ccc(Nc2ncc(Br)c(NC3CCCCC3)n2)cc1` [Compound 1, 5-bromo-N4-cyclohexyl-N2-(p-tolyl)pyrimidine-2,4-diamine], the IC50 at Axl, on Mer and at Tyro 3 was > 10 µM in each case.

As to `COc1cccc(-c2cnc(Nc3cc(Cl)cc(Cl)c3)nc2NC2CCNCC2)c1` [Compound 60, N2-(3,5-dichlorophenyl)-5-(3-methoxyphenyl)-N4-(piperidin-4-yl)pyrimidine-2,4-diamine], the IC50 on hERG was ≤ 1 µM.

On to `Clc1cc(Cl)cc(Nc2ncc(-c3cnn(C4CCNCC4)c3)c(NC3CCNCC3)n2)c1` [Compound 73, N2-(3,5-dichlorophenyl)-N4-(piperidin-4-yl)-5-(1-(piperidin-4-yl)-1H-pyrazol-4-yl)pyrimidine-2,4-diamine], for which the half-inhibitory concentration (IC50) against hERG is ≥ 50 µM.

`Cn1cc(-c2cnc(Nc3cc(C(F)(F)F)cc(C(F)(F)F)c3)nc2Nc2ccc3c(c2)CN(C(=O)C(F)(F)F)CC3)cn1` [Compound 139, 1-(7-(2-(3,5-bis(trifluoromethyl)phenylamino)-5-(1-methyl-1H-pyrazol-4-yl)pyrimidin-4-ylamino)-3,4-dihydroisoquinolin-2(1H)-yl)-2,2,2-trifluoroethan-1-one]: the IC50 is > 10 µM at Axl and 6.2e-06 µM on Tyro 3.

Turning to `Cn1cc(-c2cnc(Cl)nc2NC2CCCCC2)cn1` [Compound 4, 2-chloro-N4-cyclohexyl-5-(1-methyl-1H-pyrazol-4-yl)pyrimidine-4-amine], the half-inhibitory concentration (IC50) on Mer and at Tyro 3 was > 10 µM each time.

Consider `Cn1cc(-c2cnc(Nc3cc(Cl)cc(Cl)c3)nc2NC2CCCCC2)cn1` [Compound 5, N4-cyclohexyl-N2-(3,5-dichlorophenyl)-5-(1-methyl-1H-pyrazol-4-yl)pyrimidine-2,4-diamine], for which the IC50 on Axl is > 10 µM; on Mer, > 2 µM.

For the compound `OCCn1cc(-c2cnc(Nc3cc(Cl)cc(Cl)c3)nc2Nc2ccc3c(c2)CNCC3)cn1` [Compound 89, 2-(4-(2-(3,5-dichlorophenylamino)-4-(1,2,3,4-tetrahydroisoquinolin-7-ylamino)pyrimidin-5-yl)-1H-pyrazol-1-yl)ethanol], the hERG toxicity result on hERG is given as “no hERG toxicity”.

As to `O=C(N1CCC(Nc2nc(Nc3cc(Cl)cc(Cl)c3)ncc2-c2cnn(CCO)c2)CC1)C(F)(F)F` [Compound 71, 1-(4-(2-(3,5-dichlorophenylamino)-5-(1-(2-hydroxyethyl)-1H-pyrazol-4-yl)pyrimidin-4-ylamino)piperidin-1-yl)-2,2,2-trifluoroethanone], the IC50 at Axl was > 10 µM.

The values are drawn from patent US11053225B2, “Pyrimidine derivative compound, optical isomer thereof, or pharmaceutically acceptable salt thereof, and composition for preventing or treating Tyro 3 related disease comprising same as active ingredient” (KOREA RESEARCH INSTITUTE OF CHEMICAL TECHNOLOGY, priority 2017, dated 2021).
